Assay results taken from PubChem BioAssay (NCI).
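Each compound was tested at five concentrations against cells in 96-well plates for 48 hours. TGI denotes the concentration required for complete inhibition of growth.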

Legend:
Experiment in all cases: NCI tumour cell line growth inhibition, 48 h
CCRF-CEM leukemia = system: CCRF-CEM leukemia
DU-145 prostate = system: DU-145 prostate
ACHN renal = system: ACHN renal
SF-295 CNS = system: SF-295 CNS
MOLT-4 leukemia = system: MOLT-4 leukemia
SK-OV-3 ovarian = system: SK-OV-3 ovarian
OVCAR-5 ovarian = system: OVCAR-5 ovarian
HT29 colon = system: HT29 colon
T-47D breast = system: T-47D breast
HCT-116 colon = system: HCT-116 colon
U251 CNS = system: U251 CNS
NCI-H23 lung = system: NCI-H23 lung
MDA-N = system: MDA-N
786-0 renal = system: 786-0 renal
SR leukemia = system: SR leukemia
PC-3 prostate = system: PC-3 prostate
KM12 colon = system: KM12 colon
HS 578T breast = system: HS 578T breast
UACC-62 melanoma = system: UACC-62 melanoma
A549 NSCLC = system: A549 NSCLC
SNB-75 CNS = system: SNB-75 CNS
HCC-2998 colon = system: HCC-2998 colon
MDA-MB-435 = system: MDA-MB-435
CAKI-1 renal = system: CAKI-1 renal
MCF7 breast = system: MCF7 breast
UO-31 renal = system: UO-31 renal
SNB-19 CNS = system: SNB-19 CNS
M14 melanoma = system: M14 melanoma
OVCAR-8 ovarian = system: OVCAR-8 ovarian
EKVX NSCLC = system: EKVX NSCLC
SK-MEL-28 melanoma = system: SK-MEL-28 melanoma
MDA-MB-231 breast = system: MDA-MB-231 breast
OVCAR-3 ovarian = system: OVCAR-3 ovarian
SK-MEL-2 melanoma = system: SK-MEL-2 melanoma
TK-10 renal = system: TK-10 renal
NCI-H226 lung = system: NCI-H226 lung
A498 renal = system: A498 renal
HCT-15 colon = system: HCT-15 colon
LOX IMVI melanoma = system: LOX IMVI melanoma
NCI-H460 lung = system: NCI-H460 lung
UACC-257 melanoma = system: UACC-257 melanoma
SK-MEL-5 melanoma = system: SK-MEL-5 melanoma
RPMI-8226 leukemia = system: RPMI-8226 leukemia
RXF 393 renal = system: RXF 393 renal
HOP-92 NSCLC = system: HOP-92 NSCLC
COLO 205 colon = system: COLO 205 colon
NCI-H522 lung = system: NCI-H522 lung
K-562 leukemia = system: K-562 leukemia
HOP-62 NSCLC = system: HOP-62 NSCLC
SF-539 CNS = system: SF-539 CNS
SN12C renal = system: SN12C renal
SF-268 CNS = system: SF-268 CNS
SW-620 colon = system: SW-620 colon
BT-549 breast = system: BT-549 breast
NCI/ADR-RES ovarian = system: NCI/ADR-RES ovarian
OVCAR-4 ovarian = system: OVCAR-4 ovarian
MALME-3M melanoma = system: MALME-3M melanoma
HL-60(TB) leukemia = system: HL-60(TB) leukemia
IGROV1 ovarian = system: IGROV1 ovarian

Measured: TGI

Oc1ccc(-c2nn3c(CCCCCCCCc4nnc5sc(-c6ccc(O)cc6)nn45)nnc3s2)cc1
not listed: HL-60(TB) leukemia | IGROV1 ovarian
> 100 µM: all other assays above

O=C(O)C1[C@@H](C(=O)O)C1(Br)CBr (stereo partly specified)
not listed: CCRF-CEM leukemia | MALME-3M melanoma
> 100 µM: all other assays above

CC1=CN(c2ccccc2)S2=C1c1sc3c(c1N2c1ccc(Br)cc1)CCCC3 (stereo unspecified)
not listed: SNB-75 CNS | MALME-3M melanoma
> 100 µM: all other assays above
